# Measured values from patent US20090270419A1, “COMBINATIONS OF CLASS-I SPECIFIC HISTONE DEACETYLASE INHIBITORS WITH PROTEASOME INHIBITORS” (priority 2006, published 2009).
# Key:
# [1] = tested on: p21waf1,cip1 deficient cells as compared to the parental HCT-116 cells; settings: p21waf1,cip1 deficient cells vs parental HCT-116 cells; cited from earlier work
# [2] = tested on: acetylation of histone H3 and H4 and induction of p21waf1,cip1 in A2780 ovarian carcinoma cells; experiment: Acetylation of cellular HDAC 1 substrates and induction of p21waf1,cip1 (Western blot); type: cell-based, human; settings: 24 h, 0-3000 nM tested
# Method: Total cell lysates were prepared and analysed by SDS-PAGE. Levels of acetylated H3 and H4 histones, total level of H3 proteins and levels p21^waf1, cip1 protein were detected using appropriate dilutions of rabbit polyclonal and mouse monoclonal antibodies, followed by enhanced chemoluminescence (ECL) detection. […] Antibodies were incubated for either 1-2 h at room temperature or overnight at 4° C. […] Protein-antibody complexes were then visualized by chemiluminescence (Pierce Chemical Co) or fluorescence (Odyssey) according to the manufacturer's instructions. The experiments were performed three times.
# [3] = tested on: acetylation of tubulin and induction of Hsp 70 in A2780 ovarian carcinoma cells; experiment: Acetylation of tubulin and induction of Hsp 70 (Western blot, HDAC 6 readout); type: cell-based, human; settings: 24 h, 0-3000 nM tested
# Method: Total cell lysates were prepared and analysed by SDS-PAGE. […] Hsp 70 protein was detected with an antibody from Stressgen (Cat. nr. SPA-810), followed by ECL detection. Appropriate dilutions of antibodies were incubated for either 1-2 h at room temperature or overnight at 4° C. In order to control for equal loading, blots were stripped and re-probed with mouse monoclonal anti-actin IgM (Ab-1, Oncogene Research Products). […] Protein-antibody complexes were then visualized by chemiluminescence (Pierce Chemical Co) or fluorescence (Odyssey) according to the manufacturer's instructions. The experiments were performed three times.
# CCRF-CEM = settings: acute lymphoblastic leukemia, 72 hr, MTS
# Method: (§1) Tumor cells were grown as cell suspension in the corresponding appropriate culture medium at 37° C. in a humidified 5% CO2 incubator. Mycoplasma-free tumor cells were seeded in 96-well flat-bottom microtitration plates and incubated at 37° C. for 24 hr in culture medium containing 10% FCS. […] Cells were then incubated for an additional 72 hr.
# Jurkat clone E6-1 = settings: Jurkat clone E6-1, acute lymphoblastic leukemia; 72 hr, MTS
# Method: as §1
# KG-1 = settings: KG-1, acute myelogenous leukemia; 72 hr, MTS
# Method: as §1
# MOLT-4 = settings: MOLT-4, acute lymphoblastic leukemia; 72 hr, MTS
# Method: as §1
# SUP-B15 = settings: SUP-B15, acute lymphoblastic leukemia; 72 hr, MTS
# Method: as §1
# HL-60 = settings: HL-60, acute promyelocytic leukemia; 72 hr, MTS
# Method: as §1
# OCI-AML2 = settings: OCI-AML2, acute myeloid leukemia; 72 hr, MTS
# Method: as §1
# THP-1 = settings: THP-1, acute monocytic leukemia; 72 hr, MTS
# Method: as §1
# EHEB = settings: chronic B cell leukemia, 72 hr, MTS
# Method: as §1
# BV-173 = settings: BV-173, chronic B cell leukemia; 72 hr, MTS
# Method: as §1
# K-562 = settings: K-562, chronic myeloid leukemia; 72 hr, MTS
# Method: as §1
# KCL-22 = settings: KCL-22, chronic myeloid leukemia; 72 hr, MTS
# Method: as §1
# LAMA-84 = settings: LAMA-84, chronic myeloid leukemia in blast crisis; 72 hr, MTS
# Method: as §1
# U-937 = settings: U-937, lymphoma; 72 hr, MTS
# Method: as §1
# Daudi = settings: Burkitt's lymphoma, 72 hr, MTS
# Method: as §1
# Namalwa = settings: Burkitt's lymphoma, 72 hr, MTS
# Method: as §1
# Raji = settings: Burkitt's lymphoma, 72 hr, MTS
# Method: as §1
# Ramos = settings: Burkitt's lymphoma, 72 hr, MTS
# Method: as §1
# ARH-77 = settings: ARH-77, myeloma; 72 hr, MTS
# Method: as §1
# RPMI 8226 = settings: RPMI 8226, myeloma; 72 hr, MTS
# Method: as §1
compound,measurement,setting,value
CC(/C=C/C(=O)NO)=C\[C@@H](C)C(=O)c1ccc(N(C)C)cc1 [trichostatin A],increase in resistance to the HDAC inhibitor,[1],6 fold
Cn1cc(CNCC2CCN(c3ncc(C(=O)NO)cn3)CC2)c2ccccc21 [JNJ 26481585],"concentration when induction of acetylation of histone H3 and H4 and induction of p21waf1,cip1 is observed",[2],10 nM
same,concentration when start of induction of acetylation of tubulin and induction of Hsp 70 is observed,[3],30 nM
"O=C(CCCCCCC(=O)Nc1ccccc1)NO [SAHA, suberoylanilide hydroxamic acid]","concentration when induction of acetylation of histone H3 and H4 and induction of p21waf1,cip1 is observed",[2],3000 nM
same,concentration when start of induction of acetylation of tubulin and induction of Hsp 70 is observed,[3],100 nM
O=C(NO)c1cnc(N2CCN(S(=O)(=O)c3ccc4ccccc4c3)CC2)nc1 [R306465],"concentration when induction of acetylation of histone H3 and H4 and induction of p21waf1,cip1 is observed",[2],100 nM
same,concentration when start of induction of acetylation of tubulin and induction of Hsp 70 is observed,[3],1000 nM
same,mean IC40 (concentration required to reach 40% inhibition of cell proliferation),CCRF-CEM,0.07879 µM
same,mean IC40 (concentration required to reach 40% inhibition of cell proliferation),Jurkat clone E6-1,0.05619 µM
same,mean IC40 (concentration required to reach 40% inhibition of cell proliferation),KG-1,0.17059 µM
same,mean IC40 (concentration required to reach 40% inhibition of cell proliferation),MOLT-4,0.15583 µM
same,mean IC40 (concentration required to reach 40% inhibition of cell proliferation),SUP-B15,0.01567 µM
same,mean IC40 (concentration required to reach 40% inhibition of cell proliferation),HL-60,0.08676 µM
same,mean IC40 (concentration required to reach 40% inhibition of cell proliferation),OCI-AML2,0.26792 µM
same,mean IC40 (concentration required to reach 40% inhibition of cell proliferation),THP-1,0.44629 µM
same,mean IC40 (concentration required to reach 40% inhibition of cell proliferation),EHEB,0.48662 µM
same,mean IC40 (concentration required to reach 40% inhibition of cell proliferation),BV-173,0.02633 µM
same,mean IC40 (concentration required to reach 40% inhibition of cell proliferation),K-562,0.08076 µM
same,mean IC40 (concentration required to reach 40% inhibition of cell proliferation),KCL-22,0.08988 µM
same,mean IC40 (concentration required to reach 40% inhibition of cell proliferation),LAMA-84,0.16589 µM
same,mean IC40 (concentration required to reach 40% inhibition of cell proliferation),U-937,0.15468 µM
same,mean IC40 (concentration required to reach 40% inhibition of cell proliferation),Daudi,0.45411 µM
same,mean IC40 (concentration required to reach 40% inhibition of cell proliferation),Namalwa,0.04925 µM
same,mean IC40 (concentration required to reach 40% inhibition of cell proliferation),Raji,0.22109 µM
same,mean IC40 (concentration required to reach 40% inhibition of cell proliferation),Ramos,0.06608 µM
same,mean IC40 (concentration required to reach 40% inhibition of cell proliferation),ARH-77,0.20727 µM
same,mean IC40 (concentration required to reach 40% inhibition of cell proliferation),RPMI 8226,0.03759 µM
